This is an account of results in publication PMC11509018, “Evaluation of the Role of Tanshinone I in an In Vitro System of Charcot-Marie-Tooth Disease Type 2N” (International Journal of Molecular Sciences, 2024).

The assay deals with T1, AlaRS R326W binding to Nrp1 (Homo sapiens, UniProt P49588, R326W).
T1 construct: expressed in transfected cells
T1 sequence (P49588 1-968 R326W): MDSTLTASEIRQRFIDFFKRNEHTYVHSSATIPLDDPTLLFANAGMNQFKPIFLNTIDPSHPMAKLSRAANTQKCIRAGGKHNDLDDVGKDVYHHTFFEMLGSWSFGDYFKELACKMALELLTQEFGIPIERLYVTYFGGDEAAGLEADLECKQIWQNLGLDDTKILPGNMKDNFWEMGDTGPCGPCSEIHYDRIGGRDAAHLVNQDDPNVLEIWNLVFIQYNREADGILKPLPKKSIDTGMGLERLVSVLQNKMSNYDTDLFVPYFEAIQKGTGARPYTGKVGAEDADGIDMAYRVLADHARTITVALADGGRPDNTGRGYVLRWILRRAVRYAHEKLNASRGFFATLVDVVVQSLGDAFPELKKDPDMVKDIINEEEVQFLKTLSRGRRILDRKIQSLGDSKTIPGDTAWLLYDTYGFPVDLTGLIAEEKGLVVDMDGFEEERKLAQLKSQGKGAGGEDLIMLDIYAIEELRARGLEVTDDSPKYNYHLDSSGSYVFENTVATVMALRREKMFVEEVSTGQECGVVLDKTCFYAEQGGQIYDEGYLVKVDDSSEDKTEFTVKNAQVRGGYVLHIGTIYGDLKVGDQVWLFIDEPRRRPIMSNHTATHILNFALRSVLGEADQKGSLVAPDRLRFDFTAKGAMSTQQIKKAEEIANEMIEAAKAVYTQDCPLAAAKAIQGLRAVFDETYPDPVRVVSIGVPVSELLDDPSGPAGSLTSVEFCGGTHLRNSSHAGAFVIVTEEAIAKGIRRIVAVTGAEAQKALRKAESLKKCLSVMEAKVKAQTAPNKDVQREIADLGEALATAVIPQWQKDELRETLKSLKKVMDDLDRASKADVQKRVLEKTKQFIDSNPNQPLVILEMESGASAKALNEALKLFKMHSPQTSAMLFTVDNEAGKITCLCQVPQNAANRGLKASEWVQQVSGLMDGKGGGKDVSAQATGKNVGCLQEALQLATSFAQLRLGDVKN
The assay can be described thus: Co-IP of HA-AlaRS mutant with Nrp1 in transfected cells. Type of assay: cell-based. The note with it: 20 µM Tanshinone I for 24 h, ImageJ, average of three repeats. The procedure: To further investigate whether Tanshinone I-induced conformational changes in AlaRS CMT mutants affect their interaction with Nrp1, Co-IP experiments were performed in cells treated with Tanshinone I. By comparing Co-IP results obtained before and after treatment, we assessed the influence of the drug on the binding strength and mode between the AlaRS CMT mutants and Nrp1. […] To confirm the direct effect of Tanshinone I on the interaction between AlaRS CMT mutants and Nrp1, pull-down experiments were performed. […] Given that the interaction between AlaRS mutants and Nrp1 is associated with disease progression in CMT, the ability of Tanshinone I to disrupt this binding highlights its potential to intervene in the pathogenic mechanisms of these diseases.
Figure 7 The impact of Tanshinone I on the interaction between AlaRS mutants and Nrp1. (A) Co-IP assays were conducted to assess the binding between HA-AlaRS mutants and Nrp1, both with and without treatment with 20 µM Tanshinone I for 24 h. […] (C) Pull down assay was performed to detect the binding between AlaRS mutants and GST-Nrp1 b1 with or without 20 µM Tanshinone I. (D) Relative quantification statistics of the AlaRS mutants pulled down from the GST pull down experiments after Tanshinone I treatment were performed using ImageJ. (E) The cell viability of 293T and NSC34 cells treated with different concentrations of Tanshinone I was assessed using the CCK-8 assay over a 24 h period. TEXT PRINTED IN THE PICTURE: (B) Tanshinone I: Mean density band (N71Y): 0.60; Mean density band (G102R): 0.53; Mean density band (R326W): 0.50; Mean density band (R329H): 0.50; Mean density band (E337K): 0.62 | (D) Tanshinone I: Mean density band (N71Y): 0.82; Mean density band (G102R): 0.76; Mean density band (R326W): 0.84; Mean density band (R329H): 0.84; Mean density band (E337K): 0.90
Total protein was extracted from cells using RIPA buffer (50 mM Tris-HCl pH 7.4, 150 mM NaCl, 1% NP40, 1 mM EDTA) supplemented with a protease and phosphatase inhibitor cocktail (Roche, Basel, Switzerland). After SDS-PAGE, the protein on the gel was transferred to a PVDF membrane (Bio-Rad, Hercules, CA, USA) and then blocked with 5% non-fat dry milk in TBST for 1 h. Then, the membranes were incubated with the indicated primary antibodies and corresponding HRP-conjugated secondary antibodies. Signals were detected using the Bio-Rad ChemiDoc system (Bio-Rad, Shanghai, China). The following antibodies were used: Flag (Ray antibody biotech, Beijing, China, 1:3000), HA (Ray antibody biotech, Beijing, China, 1:3000), and GAPDH (Ray antibody biotech, Beijing, China, 1:5000).
To detect the binding of Nrp1 and AlaRS mutants in cells, whole-cell lysates (500 μg) were treated overnight with 2 μg of anti-Flag antibody in RIPA buffer. Next, Protein A/G agarose beads (#sc-2003, Santa Cruz Biotechnology, Santa Cruz, CA, USA) were applied to the lysates and the samples were further treated for 8–12 h with rotation. Samples were washed three times with RIPA buffer. Subsequently, the immunoprecipitations were resuspended into 2 × SDS-loading buffer. The samples were then boiled for 10 min and detected using Western blot. The experiment was repeated three times.

SMILES strings stand for the structures.

For `Cc1coc2c1C(=O)C(=O)c1c-2ccc2c(C)cccc12` [Tanshinone I], the “Mean density band (R326W), relative quantification of AlaRS mutant immunoprecipitated” value amounted to 0.50.
